Reference: patent publication US4125538A, “Substituted 5-phenyl-2,3,4,5-tetrahydro-1,4-benzoxazepines” (Bristol-Myers Company, priority 1977, dated 1978)
Counter-ions that a name gives are not always drawn. Like-named read-outs stand apart in the source and are kept apart here.

Assays:
[1] = tested on: phenylquinone-induced writhing in the mouse; experiment: Phenylquinone-induced writhing test in the mouse; type: in vivo; settings: for ED50: Mus musculus; for analgesic activity (in words): mouse, in vivo
Experimental: Compounds of formula I, and homologous and analogous compounds, were tested for analgesic activity by means of the phenylquinone-induced writhing test in the mouse, using the known analgesic, nefopam (5 methyl-1-phenyl-3,4,5,6-tetrahydro-1H-2,5-benzoxazocine), as a comparison standard. The method used was essentially that described by Siegmund et al. [Proc. Soc. exp. Biol. N. Y. 95, 729 (1957)]. Compounds were administered either subcutaneously (15 min) or orally (25 min) prior to the intraperitoneal injection of phenylquinone (2 mg/kg). […] The dose which produced a 50 percent reduction in the number of writhes, as compared to the control group, was called the ED50.
BL-R845 and nefopam were compared in additional phenylquinone-induced writhing tests in the mouse and rat, by various routes of administration.

[2] = tested on: cough response in male guinea-pigs; experiment: Antitussive activity in male guinea-pigs (electrically stimulated cough); type: in vivo, guinea-pig; settings: for inhibition in vivo at 10 mg/kg: Cavia porcellus, sc, 10 mg./kg. subcutaneously, cough tested at 30, 60 and 120 min, values of 30 or less not significantly different from saline controls, considered inactive or insufficiently active; for antitussive activity (in words): guinea pig, in vivo
Experimental: Compounds of formula I, and homologous and analogous compounds, were also tested for antitussive activity in male guinea-pigs, using a modification of the procedure of Friebel and Hahn [Med. Pharmacol. exp., 14, 78 (1966)]. Under general anesthesia, two stainless steel wires (0.2 mm diameter), stripped of their enamel insulation at the points of contact with the trachea, were wrapped around the trachea about 8 mm apart and then threaded under the skin and out through the back of the neck, one on each side. After 24 hrs, test animals were placed in a clear plastic cage and the cough threshold was determined by means of electrical stimulation. The following stimulation parameters were used: delay -- 0.01 msec, duration -- 0.6 msec and frequency -- 300 Hz. The minimal voltage (range 60-120 V) necessary to elicit a cough in less than 6 sec was determined. Each guinea-pig was stimulated 5 times at 30 sec intervals employing the predrug stimulation parameters at 30, 60 and 120 min following drug administration. A test animal was considered to be protected if more than 6 sec were required to produce a cough. Compounds were administered at a dosage of 10 mg./kg. subcutaneously. The percent inhibition of cough response was calculated as follows: % Inhibition = (A-B)/(A) × 100 a = number of coughs requiring <6 sec. stimulation after saline. B = number of coughs requiring <6 sec. stimulation after drug.

[3] = tested on: phenylquinone-induced writhing in the rat; experiment: Phenylquinone-induced writhing test in the rat; type: in vivo; settings: Table 4, rats
Text: BL-[…] and nefopam were compared in additional phenylquinone-induced writhing tests in the mouse and rat, by various routes of administration.

mouse hot plate = experiment: Mouse hot plate (thermal analgesic test); type: in vivo; settings: conventional thermal analgesic test
Text: (§1) The analgesic profile for BL-[…] and nefopam resembles that of the narcotic antagonist analgesics rather than the narcotic drugs. […] Nevertheless,both BL-[…] and nefopam differ from the antagonist action of naloxone. […] These findings indicate that BL-[…] and nefopam act on different receptor sites from those affected by the antagonist analgesics.

rat tail flick = experiment: Rat tail flick (thermal analgesic test); type: in vivo; settings: conventional thermal analgesic test
Text: as §1

rodent writhing = experiment: Rodent writhing tests; settings: in vivo
Text: as §1, with “BL-[…] and nefopam were compared in additional phenylquinone-induced writhing tests in the mouse and rat, by various routes of administration. The analgesic” for “The analgesic”

[4] = tested on: analgesic activity, naloxone antagonism; experiment: Block of analgesic activity by naloxone; type: in vivo; settings: naloxone as antagonist
Text: as §1

cough in dogs = experiment: Antitussive activity in the dog (method of Stefko and Benson); settings: for ED50: Canis lupus familiaris
[5] = sc, Table 1, s.c. 15 min before phenylquinone 2 mg/kg i.p., 50 percent reduction in number of writhes vs control, read-out: ED50
[6] = central, Table 4, mice, intraventricular, read-out: Phenylquinone-induced Writhing ED50, mice, intraventricular
[7] = sc, Table 4, mice, subcutaneous, read-out: Phenylquinone-induced Writhing ED50, mice, subcutaneous
[8] = Table 4, mice, oral, read-out: Phenylquinone-induced Writhing ED50, mice, oral
[9] = oral, read-out: Phenylquinone-induced Writhing ED50, rats, oral
[10] = sc, subcutaneous, read-out: Phenylquinone-induced Writhing ED50, rats, subcutaneous
[11] = po, read-out: ED50, antitussive, oral
[12] = sc, read-out: ED50, antitussive, s. c.

Compound | ED50 [1, 5] [mg/kg] | inhibition in vivo at 10 mg/kg [2] [%] | ED50 (cough in dogs; [11]) [mg/kg] | ED50 (cough in dogs; [12]) [mg/kg] | analgesic activity (in words) [1] | antitussive activity (in words) [2] | other results
CN1CCN(CCN2CCOc3ccc(Cl)cc3C2c2ccccc2)CC1.Cl.Cl.Cl (stereo not shown) [BL-5451, 7-Chloro-4-[2-(4-methylpiperazino)ethyl]-5-phenyl-2,3,4,5-tetrahydro-1,4-benzoxazepine trihydrochloride] | 19 | 0 |  |  |  |  | 
CN1CCOC(c2ccccc2)c2ccccc2C1 (stereo not shown) [nefopam, 5 methyl-1-phenyl-3,4,5,6-tetrahydro-1H-2,5-benzoxazocine, reference compound] |  | 0 | > 20 | 2 to 5 |  |  | ED50 [1, 6]: 0.14 mg/kg; ED50 [1, 7]: 1.1 mg/kg; ED50 [1, 8]: 22 mg/kg; ED50 [3, 9]: 9.6 mg/kg; ED50 [3, 10]: 1 mg/kg; analgesic activity, mouse hot plate (mouse hot plate): relative lack of analgesic activity; analgesic activity, rat tail flick (rat tail flick): relative lack of analgesic activity; activity in the rodent writhing tests (rodent writhing): good activity; effect of naloxone on analgesic activity [4]: does not block the analgesic activity
COc1ccc2c3c1O[C@H]1[C@@H](O)C=C[C@H]4[C@@H](C2)N(C)CC[C@@]341 [codeine] |  |  | 7.8 | 1.5 |  |  | 
Cl.Cl.Clc1ccc2c(c1)C(c1ccccc1)N(CCN1CCCC1)CCO2 (stereo not shown) [BL-5397, 7-Chloro-4-(2-pyrrolidinoethyl)-5-phenyl-2,3,4,5-tetrahydro-1,4-benzoxazepine dihydrochloride] | 2.5 | 0 |  |  | valuable analgesic activity |  | 
CNCCN1CCOc2ccc(Cl)cc2C1c1ccccc1 (stereo not shown) [BL-5366, 7-Chloro-4-(2-methylaminoethyl)-5-phenyl-2,3,4,5-tetrahydro-1,4,-benzoxazepine dihydrochloride] | 13 | 0 |  |  | little or no such activity | little or no such activity | 
Cl.Cl.Clc1ccc2c(c1)C(c1ccccc1)N(CCN1CCOCC1)CCO2 (stereo not shown) [BL-5405, 7-Chloro-4-(2-morpholinoethyl)-5-phenyl-2,3,4,5-tetrahydro-1,4-benzoxazepine dihydrochloride] | > 40 | 30 |  |  |  |  | 
Cl.Cl.Clc1ccc2c(c1)C(c1ccccc1)N(CCN1CCCCC1)CCO2 (stereo not shown) [BL-5409, 7-Chloro-4-(2-piperidinoethyl)-5-phenyl-2,3,4,5-tetrahydro-1,4-benzoxazepine dihydrochloride] | 9 | 0 |  |  |  |  | 
CCN(CC)CCN1CCOc2ccc(Cl)cc2C1c1ccccc1.Cl.Cl (stereo not shown) [BL-5372, 7-Chloro-4-(2-diethylaminoethyl)-5-phenyl-2,3,4,5-tetrahydro-1,4-benzoxazepine dihydrochloride] | 10 | 0 |  |  | little or no such activity | little or no such activity | 
CN(C)CCN1CCOc2ccc(Cl)cc2C1c1ccccc1.Cl.Cl (stereo not shown) [BL-R845, 7-Chloro-4-(2-dimethylaminoethyl)-5-phenyl-2,3,4,5-tetrahydro-1,4-benzoxazepine dihydrochloride] |  | 48 | 2 to 5 | 0.2 to 0.5 | effective analgesic | effective analgesic and antitussive agent | ED50 [1, 6]: 0.31 mg/kg; ED50 [1, 7]: 1.3 mg/kg; ED50 [1, 8]: 11.6 mg/kg; ED50 [3, 9]: 12.8 mg/kg; ED50 [3, 10]: 1 mg/kg; analgesic activity, mouse hot plate (mouse hot plate): relative lack of analgesic activity; analgesic activity, rat tail flick (rat tail flick): relative lack of analgesic activity; activity in the rodent writhing tests (rodent writhing): good activity; effect of naloxone on analgesic activity [4]: does not block the analgesic activity; antitussive activity compared with nefopam or codeine (cough in dogs; dog, both routes of administration): more active than nefopam or codeine
